Data reported in US9540362B2, “Sphingosine-1-phosphate receptor agonists, methods of preparing the same, and pharmaceutical compositions containing the same as an active agent” (LG LIFE SCIENCES LTD., priority 2013, dated 2017).
Counter-ions that a name gives are not always drawn.

How the values were obtained:
[1] = biological target: human sphingosine-1-phosphate 1 receptor (S1P1 receptor) (Homo sapiens, UniProt P21453); assay: Ca2+ inducing ability using CHO cells overexpressing human S1P1 receptor (Calcium 5 assay kit); assay type: cell-based; settings: CHO cells overexpressing human S1P1, calcium RFU; S1P 1 μM = 100%
Excerpt: Evaluation of Ca^2+ inducing ability of test compound using a cell line expressing human sphingosine-1-phosphate
CHO (Chinese hamster ovary) cells which overexpress human sphingosine-1-phosphate 1 receptor (S1P1 receptor) that react with sphingosine-1-phosphate (S1P) are used for a functional test method wherein an increase of calcium indicates a therapeutic efficacy of an agonist compound.
To prepare CHO cells which overexpress human S1P1˜S1P5, human clones for each subtype having HA at the N terminal residue (S1P1: EDG010TN00, S1P2: EDG020TN00, S1P3: EDG030TN00, S1P4: EDG060TN00, S1P5: EDG080TN00) were purchased from the Missouri S&T cDNA Resource Center and co-transfected with G-protein alpha subunit (G-alpha-16) into CHO-K1 cells.
A calcium measurement kit (Calcium 5 assay kit, Molecular Devices) was used to select an agonist compound. The principle of calcium measurement is that calcium-sensitive dyes are applied to cells, they enter into the cytoplasm of the cells during incubation, and when a ligand binds to a certain receptor to release calcium into the cytoplasm, the dyes bind to said calcium to induce fluorescence which is measured. This test method can sensitively measure only the intracellular calcium concentration change because any change that may occur outside the cells is masked by a masking dye.
The experimental procedure was as follows. One day before calcium measurement, CHO cells overexpressing hS1P1˜hS1P5 were dispensed into a 96-well plate (bottom clear black well) in 3×10^4 cells per well and cultured at 37° C. under 5% carbon dioxide condition for one day. 100 μl of calcium dyes mixed with Assay Buffer (1×HBSS, 20 mM HEPES, 2.5 mM probenecid, pH 7.4) were dispensed into culture solution in well and cultured at 37° C. for one hour. Test compounds were dissolved in 100% DMSO to prepare 1 μl solution per each concentration, and each solution was mixed with 199 μl Assay Buffer such that the concentrations were 50, 5, 0.5, 0.05, 0.005 and 0.0005 μM. The plate cultured with the calcium dyes was put into FlaxstationII (Molecular Devices), and the prepared test compounds (the final concentrations of the test compounds: 10, 1, 0.1, 0.01, 0.001 and 0.0001 μM) were programmed to be automatically inoculated in 50 μl per each well. For a total of 90 seconds, RFU (relative fluorescence unit) values were measured. The value of Reference (S1P substance 1 μM) deducting the blank value was set as 100%, and EC50 values of the test compounds were calculated by prism.

lymphocytes in blood = assay: Rat peripheral blood lymphocyte decrease; assay type: in vivo; settings: male SD rat, 6 hours after administration
Procedure: Evaluation of Rat Peripheral Blood Lymphocyte Decrease
Lymphocyte decrease in blood by S1P1 agonist was evaluated using a male SD rat. After adapting a rat weighing about 250 g to a breeding facility for one week, a test compound was administered to it once. At 3 hours, 6 hours, 24 hours and 48 hours after administration, blood was taken from a tail caudal vein, and about 200 μl of the blood was put into an EDTA tube while preventing it from clotting, followed by measurement of the number of lymphocytes in blood. The number of lymphocytes was analyzed by a hematological examination device, Hemoanalyzer. The doses of the test compounds were 3 mg/kg for Example 52, 94, 108, 117, 142, 145, 146, 148 and 149 compounds, and 1 mg/kg for Example 150, 151, 153, 154, 155, 158, 159 and 161 compounds.

human sphingosine-1-phosphate 1 receptor (S1P1 receptor), sequence (P21453 whole entry): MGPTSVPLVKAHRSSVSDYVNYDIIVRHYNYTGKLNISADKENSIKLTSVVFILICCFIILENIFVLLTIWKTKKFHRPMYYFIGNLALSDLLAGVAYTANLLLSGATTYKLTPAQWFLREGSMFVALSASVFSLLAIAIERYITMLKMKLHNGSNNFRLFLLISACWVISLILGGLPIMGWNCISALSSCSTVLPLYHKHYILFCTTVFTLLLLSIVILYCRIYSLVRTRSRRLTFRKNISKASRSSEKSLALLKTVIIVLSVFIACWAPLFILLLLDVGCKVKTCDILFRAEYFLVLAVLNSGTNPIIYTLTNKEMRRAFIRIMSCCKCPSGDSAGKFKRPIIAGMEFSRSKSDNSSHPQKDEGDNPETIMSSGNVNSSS

SMILES	EC50 [1]	Lymphocyte count (degree of decrease in lymphocyte number) (lymphocytes in blood; administered once, 3 mg/kg)	Lymphocyte count (degree of decrease in lymphocyte number) (lymphocytes in blood; administered once, 1 mg/kg)	Lymphocyte count (degree of decrease in lymphocyte number) (lymphocytes in blood; dose of the reference not stated)
Cc1cc(CCC(=O)O)ccc1-c1noc(-c2ccc3c(ccn3C(C)C)c2)n1 [Example 1, 3-{4-[5-(1-isopropyl-1H-indol-5-yl)-[1,2,4]oxadiazol-3-yl]-3-methyl-phenyl}-propanoic acid]	5 nM			
CC(C)n1ccc2cc(-c3nc(-c4ccc(CN5CC(C(=O)O)C5)cc4)no3)ccc21 [Example 2, 1-{4-[5-(1-isopropyl-1H-indol-5-yl)-[1,2,4]oxadiazol-3-yl]-benzyl}-azetidine-3-carboxylic acid]	25 nM			
Cc1cc(CN2CC(C(=O)O)C2)ccc1-c1noc(-c2ccc3c(c2)c(Cl)cn3C(C)C)n1 [Example 3, 1-{4-[5-(3-chloro-1-isopropyl-1H-indol-5-yl)-[1,2,4]oxadiazol-3-yl]-3-methyl-benzyl}-azetidine-3-carboxylic acid]	23 nM			
Cc1cc(CN2CC(C(=O)O)C2)ccc1-c1noc(-c2ccc3c(c2)c(C#N)cn3C(C)C)n1 [Example 4, 1-{4-[5-(3-cyano-1-isopropyl-1H-indol-5-yl)-[1,2,4]oxadiazol-3-yl]-3-methyl-benzyl}-azetidine-3-carboxylic acid]	23 nM			
Cc1cc(CN2CC(C(=O)O)C2)ccc1-c1noc(-c2ccc3c(ccn3C(C)C)c2)n1 [Example 5, 1-{4-[5-(1-isopropyl-1H-indol-5-yl)-[1,2,4]oxadiazol-3-yl]-3-methyl-benzyl}-azetidine-3-carboxylic acid]	14 nM			
Cc1c(CN2CC(C(=O)O)C2)cccc1-c1noc(-c2ccc3c(ccn3C(C)C)c2)n1 [Example 26, 1-{3-[5-(1-isopropyl-1H-indol-5-yl)-[1,2,4]oxadiazol-3-yl]-2-methyl-benzyl}-azetidine-3-carboxylic acid]	2 nM			
CC(C)n1ccc2cc(-c3nc(-c4cccc5c4CCCC5NS(N)(=O)=O)no3)ccc21 (stereo not drawn) [Example 38, N-{5-[5-(1-isopropyl-1H-indol-5-yl)-[1,2,4]oxadiazol-3-yl]-1,2,3,4-tetrahydro-naphthalen-1-yl}-sulfamide]	50 nM			
Cc1cc(CCC(=O)O)ccc1-c1noc(-c2ccc3c(c2)c(Cl)cn3C(C)C)n1 [Example 52, 3-{4-[5-(3-chloro-1-isopropyl-1H-indol-5-yl)-[1,2,4]oxadiazol-3-yl]-3-methyl-phenyl}-propanoic acid]	10 nM	−80%		
Cc1c(-c2noc(-c3ccc4c(c3)c(Cl)cn4C(C)C)n2)ccc2c1CCN(CC(=O)O)C2 [Example 58, {6-[5-(3-chloro-1-isopropyl-1H-indol-5-yl)-[1,2,4]oxadiazol-3-yl]-5-methyl-3,4-dihydro-1H-isoquinolin-2-yl}-acetic acid, hydrochloride]	20 nM			
Cc1c(-c2noc(-c3ccc4c(cnn4C(C)C)c3)n2)ccc2c1CCN(CC(=O)O)C2 [Example 85, {6-[5-(1-isopropyl-1H-indazol-5-yl)-[1,2,4]oxadiazol-3-yl]-5-methyl-3,4-dihydro-1H-isoquinolin-2-yl}-acetic acid, trifluoroacetate]	10 nM			
Cc1c(-c2noc(-c3ccc4c(c3)c(Cl)nn4C(C)C)n2)ccc2c1CCN(CCC(=O)O)C2 [Example 94, 3-{6-[5-(3-chloro-1-isopropyl-1H-indazol-5-yl)-[1,2,4]oxadiazol-3-yl]-5-methyl-3,4-dihydro-1H-isoquinolin-2-yl}-propanoic acid, trifluoroacetate]	6 nM	−82%		
Cc1c(-c2noc(-c3ccc4nn(C(C)C)cc4c3)n2)ccc2c1CCN(CC(=O)O)C2 [Example 97, {6-[5-(2-isopropyl-2H-indazol-5-yl)-[1,2,4]oxadiazol-3-yl]-5-methyl-3,4-dihydro-1H-isoquinolin-2-yl}-acetic acid, trifluoroacetate]	50 nM			
CC(C)n1nc(Cl)c2cc(-c3nc(-c4cccc5c4CCN(S(N)(=O)=O)C5)no3)ccc21 [Example 108, 5-[5-(3-chloro-1-isopropyl-1H-indazol-5-yl)-[1,2,4]oxadiazol-3-yl]-3,4-dihydro-1H-isoquinoline-2-sulfonic acid amide]	20 nM	−70%		
CCCCCCCCc1ccc(CCC(N)(CO)CO)cc1 [FTY-720, Fingolimod, reference compound]				−80%

Further lines, with some results ahead:

EC50 [1]	SMILES	Lymphocyte count (degree of decrease in lymphocyte number) (lymphocytes in blood; administered once, 3 mg/kg)	Lymphocyte count (degree of decrease in lymphocyte number) (lymphocytes in blood; administered once, 1 mg/kg)	Lymphocyte count (degree of decrease in lymphocyte number) (lymphocytes in blood; dose of the reference not stated)
3 nM	Cc1c(-c2noc(-c3ccc4c(c3)c(C)nn4C(C)C)n2)ccc2c1CCN(CC(=O)O)C2 [Example 117, {6-[5-(1-isopropyl-3-methyl-1H-indazol-5-yl)-[1,2,4]oxadiazol-3-yl]-5-methyl-3,4-dihydro-1H-isoquinolin-2-yl}-acetic acid, trifluoroacetate]	−80%		
50 nM	Cc1cc(C(C)CC(=O)O)ccc1-c1noc(-c2ccc3c(c2)c(Cl)nn3C(C)C)n1 (stereo not drawn) [Example 129, 3-{4-[5-(3-chloro-1-isopropyl-1H-indazol-5-yl)-[1,2,4]oxadiazol-3-yl]-3-methyl-phenyl}-butyric acid, trifluoroacetate]			
7 nM	CC(C)n1nc(Cl)c2cc(COc3ccc4cc(CN5CC(C(=O)O)C5)ccc4c3)ccc21 [Example 142, 1-[6-(3-chloro-1-isopropyl-1H-indazol-5-ylmethoxy)-naphthalen-2-ylmethyl]-azetidine-3-carboxylic acid]	−80%		
9 nM	CC1=C(CN(C)CC(=O)O)CCc2cc(OCc3ccc4c(c3)c(Cl)nn4C(C)C)ccc21 [Example 145, {[6-(3-chloro-1-isopropyl-1H-indazol-5-ylmethoxy)-1-methyl-3,4-dihydro-naphthalen-2-ylmethyl]-methyl-amino}-acetic acid]	−48%		
5 nM	CC1=C(CN2CC(C(=O)O)C2)CCc2cc(OCc3ccc4c(c3)c(Cl)nn4C(C)C)ccc21 [Example 146, 1-[6-(3-chloro-1-isopropyl-1H-indazol-5-ylmethoxy)-1-methyl-3,4-dihydro-naphthalen-2-ylmethyl]-azetidine-3-carboxylic acid]	−78%		
19 nM	CC1=C(CN2CCC(C(=O)O)CC2)CCc2cc(OCc3ccc4c(c3)c(Cl)nn4C(C)C)ccc21 [Example 148, 1-[6-(3-chloro-1-isopropyl-1H-indazol-5-ylmethoxy)-1-methyl-3,4-dihydro-naphthalen-2-ylmethyl]-piperidine-4-carboxylic acid]	−81%		
19 nM	CC1=C(CN2CCCC(C(=O)O)CC2)CCc2cc(OCc3ccc4c(c3)c(Cl)nn4C(C)C)ccc21 (stereo not drawn) [Example 149, 1-[6-(3-chloro-1-isopropyl-1H-indazol-5-ylmethoxy)-1-methyl-3,4-dihydro-naphthalen-2-ylmethyl]-azepane-4-carboxylic acid]	−80%		
8 nM	CC(C)n1nc(Cl)c2cc(COc3ccc4c(c3)CCC(CN3CCC(C(=O)O)C3)=C4Cl)ccc21 (stereo not drawn) [Example 150, 1-[1-chloro-6-(3-chloro-1-isopropyl-1H-indazol-5-ylmethoxy)-3,4-dihydro-naphthalen-2-ylmethyl]-pyrrolidine-3-carboxylic acid]		−82%	
19 nM	CCC(C)n1nc(Cl)c2cc(COc3ccc4c(c3)CCC(CN3CCC(C(=O)O)CC3)=C4Cl)cnc21 (stereo not drawn) [Example 160, 1-[6-(1-sec-butyl-3-chloro-1H-pyrazolo[3,4-b]pyridin-5-ylmethoxy)-1-chloro-3,4-dihydro-naphthalen-2-ylmethyl]-piperidine-4-carboxylic acid]			
